The record followed here is patent US20260216057A1, “PHARMACEUTICAL COMPOSITIONS FOR HERPES VIRUS” (priority 2022, published 2026).

One data set concerns HSV-1. Briefly: HSV-1 antiviral assay, cytopathic effect (CPE) inhibition in vero cells. The class given is cell-based. Particulars: 4 days, read-out: in vitro EC50 against HSV-1. The procedure: (§1) Cytopathic Effect (CPE) Inhibition Assay
(§2) Cell culture—vero cells were cultured in Dulbecco's Modified Eagle Medium (DMEM) supplemented with 10% fetal bovine serum and 100 units/mL penicillin and streptomycin. The cells were passaged 2-3 times per week to maintain sub-confluent densities.
HSV-1 antiviral assay—vero cells were seeded into 96-well plates at a density of 2.5×10^3 cells per well and allowed to attach overnight. Following attachment, the media was replaced with 50 μL of infection medium (DMEM supplemented with 2% fetal bovine serum and 100 units/mL penicillin and streptomycin). A Tecan D300e digital dispenser was then used to add compounds to the culture using an 8-point 3-fold serial dilution format. The DMSO concentration was normalized to 0.5% for all treatments. Following compound addition, 50 μL of infection medium containing 80 TCID50 HSV-1 was added to the cells and incubated at 37° C. for 4 days. After the incubation, the plates were equilibrated to room temperature, the media was removed, and 60 μL of a 1:1 dilution of Cell titer glow and phosphate buffered saline was added to the cells. Following a 5-minute incubation, cell viability was quantified by measuring luminance using a Tecan Infinite M1000 Pro plate reader.
(§3) Vero cells were cultured in Dulbecco's Modified Eagle Medium (DMEM) supplemented with 10% foetal bovine serum and 100 units/mL penicillin and streptomycin. The cells were passaged 2-3 times per week to maintain sub-confluent densities.
Vero cells were seeded into 96-well plates at a density of 2.5×10^3 cells per well and allowed to attach overnight. Following attachment, the media was replaced with 50 μL of infection medium (DMEM supplemented with 2% foetal bovine serum and 100 units/mL penicillin and streptomycin). A Tecan D300e digital dispenser was then used to add compounds to the culture using an 8-point 3-fold serial dilution format. The DMSO concentration was normalized to 0.5% for all treatments. […] Following a 5-minute incubation, cell viability was quantified by measuring luminance using a Tecan Infinite M1000 Pro plate reader.
In general terms: Cytopathic effects are the visible damage that an infection or toxin causes in cultured cells.

In the next data set the test system is HSV-2 G strain. Briefly: HSV-2 antiviral assay, cytopathic effect (CPE) inhibition in vero cells. It counts as cell-based. How it is done:
as §1, §2
(§4) HSV-2 antiviral assay—vero cells were seeded into 96-well plates at a density of 1.0×10^4 cells per well and allowed to attach overnight. Following attachment, the media was replaced with 50 μL of infection medium (DMEM supplemented with 2% fetal bovine serum and 100 units/mL penicillin and streptomycin). A Tecan D300e digital dispenser was then used to add compounds to the culture using an 8-point 3-fold serial dilution format. The DMSO concentration was normalized to 0.5% for all treatments. Following compound addition, 50 μL of infection medium containing 160 TCID50 HSV-2 G strain was added to the cells and incubated at 37° C. for 5 days. After the incubation, 10 μL/well of WST-8 chromogenic reagent was added and the plates incubated at 37° C. for 3 hours. Following the incubation, cell viability was quantified by measuring the absorbance at 460 nm and 620 nm using a Tecan Infinite M1000 Pro plate reader.
as §3
as §4, with “Vero” for “HSV-2 antiviral assay—vero”, “foetal” for “fetal”

The subject of data set [1] is carbonic anhydrase I and/or carbonic anhydrase II. In words: Carbonic anhydrase inhibition. It counts as biochemical. An excerpt: Carbonic anhydrase inhibition can be measured using a carbonic anhydrase I assay as described in Katritzky et al. (J. Med. Chem. 1987, 30:2058) and a carbonic anhydrase […] assay as described in lyer et al. (J. Biomol. Screen 2006, 11:782).

Data set [2] in a line: Example 1: pritelivir aqueous suspension SC PK study in rat. It counts as in vivo, male Sprague Dawley rats. The following applies: aqueous suspension (dihydrate), 33.33 mg/kg and 166.67 mg/kg, both dosing levels. How it is done:
The LC-MS methodology and conditions used to analyse pritelivir in plasma samples from the PK studies described in Examples 1 to 5 are provided in Table 1.
An aqueous suspension of crystalline pritelivir free base (dihydrate) in a 0.9% NaCl+0.5% polysorbate 80 vehicle at concentrations of 10.0 mg/mL and 50.0 mg/mL was prepared as follows: • 1) Vehicle (0.9% w/w NaCl and 0.5% w/w polysorbate 80) was prepared by dissolving NaCl and polysorbate 80 in water. • 2) Appropriate amount of crystalline pritelivir free base (dihydrate) was weighed and added to the vehicle. • 3) Mixture was vortexed for 1 minute, stirred for 10 minutes and then sonicated for 15 minutes. • 4) The final dosing formulation was a homogenous white cloudy suspension.
Male Sprague Dawley (SD) rats with ~300 g body weight (ages 6-8 weeks) were used for the pharmacokinetic study. The animals had free access to food and water. The pritelivir suspensions described above were administered via sub-cutaneous injection to each animal group (n=3) with a dosing volume of 3.33 mL/kg to achieve 33.33 mg/kg and 166.67 mg/kg doses.
At each time point, approximately 200 μL whole blood was collected in a K2EDTA tube via the jugular vein. Blood samples were put on ice and centrifuged at 2000 g for 5 min to obtain a plasma sample within 15 minutes. Plasma samples were stored at approximately −70° C. until analyzed by LC-MS.

The mark [3] stands for this setting: Human alphaherpesvirus 1, Vero, 96 h.
[4] abbreviates: Human alphaherpesvirus 2, Vero, 120 h, CPE assay, vero cells, 5 days, read-out: in vitro EC50 against HSV-2.

SMILES strings stand for the structures. pEC50: −log10 of the molar value. Read-outs that look alike come from different tables or passages of the source.

Broadly, the pEC50 is the negative decadic logarithm of the EC50, by convention in mol/L.

On to `Cc1nc(N2CCCN(c3ccc(-c4cc(F)ccc4F)cc3)C2=O)sc1S(N)(=O)=O` [Compound 1, 2-(3-(2′,5′-difluoro-[1,1′-biphenyl]-4-yl)-2-oxotetrahydropyrimidin-1(2H)-yl)-4-methylthiazole-5-sulfonamide], for which the pEC50 in the data set with HSV-1 is 7.82; in the data set on HSV-1 (setting [3]) it was about 7.72; with HSV-2 G strain (CPE assay, vero cells, 5 days, read-out: in vitro EC50 against HSV-2), 7.89; with HSV-2 G strain (setting [4]) it was about 7.96; with HSV-2 G strain (Human alphaherpesvirus 2, Vero, Example 9, n=35, read-out: EC50 in the HSV-2 antiviral assay), 7.96. In data set [1], the carbonic anhydrase inhibition entry is recorded as “no or low levels of carbonic anhydrase inhibition”.
Regarding `Cc1nc(N(C)C(=O)Cc2ccc(-c3ccccn3)cc2)sc1S(N)(=O)=O` [pritelivir, N-methyl-N-(4-methyl-5-sulfamoyl-1,3-thiazol-2-yl)-2-[4-(pyridin-2-yl)phenyl]acetamide], the pEC50 is 7.33 with HSV-1 (setting [3]) and 7.26 with HSV-2 G strain (setting [4]). The “prolonged exposure out to (length of the study)” value in data set [2] is recorded as “at least 720 hours”.
